Laboratory results published in patent US8143212B2 (Vicuron Pharmaceuticals Inc., priority 2002, dated 2012).
Values after ≈ are worked out from the molar mass of the structure shown.

Experiments:
Type in all cases: cell-based
[1] = tested on: Escherichia coli, Proteus vulgaris, Pseudomonas aeruginosas; assay: MIC by broth microdilution (NCCLS) of IsoB0 and reference compounds (Table 44), non-gram-positive bacterial strains
Experimental: (§1) MICs were determined by the broth microdilution methodology following the standard NCCLS procedure, with or without 30% bovine serum, using bacterial inocula of approximately 5×10^5 CFU/mL. Tests were read after 20-24 h incubation at 35° C.

[2] = tested on: panel of gram-positive bacteria; assay: MIC by broth microdilution (NCCLS) of IsoB0 and reference compounds (Table 44)
Experimental: Müller Hinton broth (Difco Laboratories, Detroit, Mich., USA) adjusted with CaCl2 and MgCl2 to a final concentrations of 20 mg/L and 10 mg/L respectively.
The microorganisms used are reference standard strains from the American Type Culture Collection (ATCC, Rockville, USA), Smith Kline and French Laboratories (SKF) and the Upjohn Company (UC, Kalamazoo, Mich., USA).
as §1

[3] = tested on: Candida albicans SKF 2270; assay: MIC by broth microdilution (NCCLS) (Tables 42, 44)
[4] = tested on: gram-negative bacteria; assay: MIC by broth microdilution (NCCLS) (Table 42)
Experimental: (§2) Before dissolution, each sample was analyzed by HPLC and quantified.
(§3) The microorganisms used were reference strains obtained from the American Type Culture Collection (ATCC) (Rockville, Md.), SmithKline and French Laboratories (SKF), and the Upjohn Company (UC) (Kalamazoo, Mich.).
(§4) MICs were determined by the broth microdilution methodology following the standard NCCLS procedure (NCCLS Document M7-A6, Vol. 23, No. 2, “Methods for dilution antimicrobial susceptibility tests for bacteria that grow aerobically.” Approved Guideline. January 2003, which can be herein incorporated by reference in its entirety), with or without 30% adult bovine serum (BS) (PAA Laboratories GMBH, Haidmannweg Pasching Austria), using bacterial innocula at approximately 5×10^5 CFU/ml. The media employed included cation-adjusted Müller Hinton broth (Difco Laboratories, Detroit, Mich.) that was used that was adjusted with CaCl2 and MgCl2 to a final concentration of 20 mg/L and 10 mg/L, respectively. Tests were read following 20-24 hours of incubation at 35° C.

[5] = tested on: gram positive bacteria; assay: MIC by broth microdilution (NCCLS), with or without 30% bovine serum (Table 42)
Experimental: as §2, §3, §4

[6] = Pseudomonas aeruginosas ATCC 10145
[7] = E. faecalis ATCC29212 ref. strain
[8] = Enterococcus faecalis ATCC 7080
[9] = S. aureus ATCC 29213 ref. strain
[10] = Staphylococcus aureus Smith ATCC 19636
[11] = Streptococcus pyogenes SKF13400
[12] = Candida albicans SKF2270 (Table 44)
[13] = Streptococcus pyrogenes SKF 13400
[14] = Candida albicans SKF 2270 (Table 42)

SMILES	MIC ([1]; E. coli ATCC25922 ref. strain) [µg/mL]	MIC ([1]; Escherichia coli SKF 12140) [µg/mL]	MIC ([1]; Proteus vulgaris ATCC 881) [µg/mL]	MIC [1, 6] [µg/mL]	MIC ([2]; Bacillus subtilis ATCC 6633)	MIC [2, 7] [µg/mL]	MIC ([4]; E. coli ATCC25922 ref. strain) [µg/mL]	MIC ([4]; Escherichia coli SKF 12140) [µg/mL]	MIC ([4]; Proteus vulgaris ATCC 881) [µg/mL]	MIC [4, 6] [µg/mL]	MIC ([5]; Bacillus subtilis ATCC 6633)	MIC [5, 7]	MIC [5, 8] [µg/mL]	MIC [5, 9] [µg/mL]	MIC ([5]; S. aureus Smith + 30% BS) [µg/mL]	MIC ([5]; S. epidermidis ATCC 12228)	MIC ([5]; S. pneumoniae Felton UC41)	MIC [5, 10] [µg/mL]	MIC [5, 13]	MIC [3, 14] [µg/mL]	also measured
C[C@@H]1[C@H](O)[C@@H](C)/C=C/C=C/C=C/C=C/C=C/C=C/C=C/[C@H](O[C@@H]2O[C@H](C)[C@@H](O)[C@H](N)[C@@H]2O)C[C@@H]2O[C@](O)(C[C@@H](O)C[C@@H](O)[C@H](O)CC[C@@H](O)C[C@@H](O)CC(=O)O[C@H]1C)C[C@H](O)[C@H]2C(=O)O [Amph. B]	>64	>64	>64	>64	>64 µg/mL	>64															MIC [2, 8]: >64 µg/mL; MIC [2, 9]: >64 µg/mL; MIC ([2]; S. aureus Smith + 30% BS): >64 µg/mL; MIC ([2]; S. epidermidis ATCC 12228): >64 µg/mL; MIC ([2]; S. pneumoniae Felton UC41): >64 µg/mL; MIC [2, 10]: >64 µg/mL; MIC [2, 11]: 32 µg/mL (≈ 34.6 µM); MIC [3, 12]: 0.125 µg/mL (≈ 0.135 µM)
C[C@@H]1[C@H](O)[C@@H](C)/C=C/C=C/C=C/C=C/C=C/C=C/C=C/[C@H](O[C@@H]2O[C@H](C)[C@@H](O)[C@H](N)[C@@H]2O)C[C@@H]2O[C@](O)(C[C@@H](O)C[C@@H](O)[C@H](O)CC[C@@H](O)C[C@@H](O)CC(=O)O[C@H]1C)C[C@H](O)[C@H]2C(=O)O [Amphotericin B]							>64	>64	>64	>64	>64 µg/mL	>64 µg/mL	>64	>64	>64	>64 µg/mL	>64 µg/mL	>64	32 µg/mL (≈ 34.6 µM)	0.125 (≈ 0.135 µM)	
CN[C@H]1C(=O)N[C@@H]2Cc3ccc(cc3)Oc3cc4cc(c3O[C@@H]3O[C@H](C(=O)O)[C@@H](O)[C@H](O)[C@H]3NC(=O)CCCCCCCC(C)C)Oc3ccc(cc3Cl)[C@@H](O)[C@@H]3NC(=O)[C@H](NC(=O)[C@@H]4NC(=O)[C@@H](NC2=O)c2cc(cc(O)c2Cl)Oc2cc1ccc2O)c1ccc(O)c(c1)-c1c(O[C@H]2O[C@H](CO)[C@@H](O)[C@H](O)[C@@H]2O)cc(O)cc1[C@@H](C(=O)NCCCN(C)C)NC3=O [Composition A0]							>64	>64	>64	>64	≦0.06 mg/L	≦0.06 mg/L	0.125 (≈ 0.0693 µM)	0.125 (≈ 0.0693 µM)	1	0.125 µg/mL (≈ 0.0693 µM)	0.125 µg/mL (≈ 0.0693 µM)	0.125 (≈ 0.0693 µM)	0.015 µg/mL (≈ 0.00832 µM)	>64	
CN[C@H]1C(=O)N[C@@H]2Cc3ccc(cc3)Oc3cc4cc(c3O[C@@H]3O[C@H](C(=O)O)[C@@H](O)[C@H](O)[C@H]3NC(=O)CCCCCCCCC(C)C)Oc3ccc(cc3Cl)[C@@H](O)[C@@H]3NC(=O)[C@H](NC(=O)[C@@H]4NC(=O)[C@@H](NC2=O)c2cc(cc(O)c2Cl)Oc2cc1ccc2O)c1ccc(O)c(c1)-c1c(O[C@H]2O[C@H](CO)[C@@H](O)[C@H](O)[C@@H]2O)cc(O)cc1[C@@H](C(=O)NCCCN(C)C)NC3=O [Composition B0, ristomycin A aglycone, 5,31-dichloro-38-de(methoxycarbonyl)-7-demethyl-19-deoxy-56-O-(2-deoxy-2-((10-methyl-1-oxoundecyl)amino)-beta-D-glucopyranuronosyl)-38-(((3-(dimethylamino)propyl)amino)-carbonyl)-42-O-alpha-D-mannopyranosyl-N^15-methyl-]							>64	>64	>64	>64	≦0.06 mg/L	0.125 µg/mL (≈ 0.0688 µM)	0.125 (≈ 0.0688 µM)	0.125 (≈ 0.0688 µM)	2	≦0.06 mg/L	≦0.06 mg/L	0.25 (≈ 0.138 µM)	≦0.06 mg/L	>64	
CCCCCCCCCCCC(=O)N[C@H]1[C@H](Oc2c3cc4cc2Oc2ccc(cc2Cl)[C@@H](O)[C@@H]2NC(=O)[C@H](NC(=O)[C@@H]4NC(=O)[C@H]4NC(=O)[C@@H](Cc5ccc(cc5)O3)NC(=O)[C@H](NC)c3ccc(O)c(c3)Oc3cc(O)c(Cl)c4c3)c3ccc(O)c(c3)-c3c(O[C@H]4O[C@H](CO)[C@@H](O)[C@H](O)[C@@H]4O)cc(O)cc3[C@@H](C(=O)NCCCN(C)C)NC2=O)O[C@H](C(=O)O)[C@@H](O)[C@@H]1O [Composition B1]							>64	>64	>64	>64	≦0.06 mg/L	0.125 µg/mL (≈ 0.0688 µM)	0.125 (≈ 0.0688 µM)	0.125 (≈ 0.0688 µM)	2	≦0.06 mg/L	≦0.06 mg/L	0.125 (≈ 0.0688 µM)	≦0.06 mg/L	>64	
CC(C)CCCCCCCCC(=O)N[C@H]1[C@H](Oc2c3cc4cc2Oc2ccc(cc2Cl)[C@@H](O)[C@@H]2NC(=O)[C@H](NC(=O)[C@@H]4NC(=O)[C@H]4NC(=O)[C@@H](Cc5ccc(cc5)O3)NC(=O)[C@H](N(C)C)c3ccc(O)c(c3)Oc3cc(O)c(Cl)c4c3)c3ccc(O)c(c3)-c3c(O[C@H]4O[C@H](CO)[C@@H](O)[C@H](O)[C@@H]4O)cc(O)cc3[C@@H](C(=O)NCCCN(C)C)NC2=O)O[C@H](C(=O)O)[C@@H](O)[C@@H]1O [Composition B2, N^15,N^15-dimethyl dalbavancin B0]																					MIC range ([4]; representative panel of gram-negative bacteria): 16 to 32 µg/mL; activity across the range of gram-positive bacteria [5]: comparable to or greater than the activity of B0
CC1(C)S[C@@H]2[C@H](NC(=O)Cc3ccccc3)C(=O)N2[C@H]1C(=O)O [Pen. G]	>32	>32	>32	>32	≦0.03 mg/L	4 (≈ 12 µM)															MIC [2, 8]: 32 µg/mL (≈ 95.7 µM); MIC [2, 9]: 8 µg/mL (≈ 23.9 µM); MIC ([2]; S. aureus Smith + 30% BS): 0.06 µg/mL; MIC ([2]; S. epidermidis ATCC 12228): >32 µg/mL; MIC ([2]; S. pneumoniae Felton UC41): ≦0.03 mg/L; MIC [2, 10]: 0.06 µg/mL (≈ 0.179 µM); MIC [2, 11]: ≦0.03 mg/L; MIC [3, 12]: >32 µg/mL
CC1(C)S[C@@H]2[C@H](NC(=O)Cc3ccccc3)C(=O)N2[C@H]1C(=O)O [Penicillin G]							>32	>32	>32	>32	≦0.03 mg/L	4 µg/mL (≈ 12 µM)	32 (≈ 95.7 µM)	8 (≈ 23.9 µM)	0.06	>32 µg/mL	≦0.03 mg/L	0.06 (≈ 0.179 µM)	≦0.03 mg/L	>32	
CN[C@H]1C(=O)N[C@@H]2Cc3ccc(cc3)Oc3cc4cc(c3O[C@@H]3O[C@H](C(=O)O)[C@@H](O)[C@H](O)[C@H]3NC(=O)CCCCCCCCC(C)C)Oc3ccc(cc3Cl)[C@@H](O)[C@@H]3NC(=O)[C@H](NC(=O)[C@@H]4NC(=O)[C@H](NC2=O)c2cc(cc(O)c2Cl)Oc2cc1ccc2O)c1ccc(O)c(c1)-c1c(O[C@H]2O[C@H](CO)[C@@H](O)[C@H](O)[C@@H]2O)cc(O)cc1[C@@H](C(=O)NCCCN(C)C)NC3=O [isoB0]	64 (≈ 35.2 µM)	64 (≈ 35.2 µM)	>64	>64	≦0.06 mg/L	0.25 (≈ 0.138 µM)															activity against a panel of gram-positive bacteria [2]: very similar to dalbavancin; MIC [2, 8]: 0.25 µg/mL (≈ 0.138 µM); MIC [2, 9]: 0.25 µg/mL (≈ 0.138 µM); MIC ([2]; S. aureus Smith + 30% BS): 16 µg/mL; MIC ([2]; S. epidermidis ATCC 12228): 0.125 µg/mL (≈ 0.0688 µM); MIC ([2]; S. pneumoniae Felton UC41): 0.125 µg/mL (≈ 0.0688 µM); MIC [2, 10]: 0.5 µg/mL (≈ 0.275 µM); MIC [2, 11]: 0.06 µg/mL (≈ 0.033 µM); MIC [3, 12]: >64 µg/mL
